# Assay results reported in a melting point compilation (Tetko et al.; mined from patent text by program, amines drawn as free bases though some values may be those of a salt).
row,SMILES,melting point [°C]
1,CS(=O)(=O)c1ccc2c(c1)[C@@H](Oc1ccc(C#N)cc1Cl)[C@H](N1CCC[C@@H](N)C1)C2,162
2,C=CC(=O)OCCSc1ccc2sc3ccccc3c(=O)c2c1,68 to 71
3,ClCn1cnc(Cl)c1Cl,40 to 41
4,CCOc1nc(Cl)nc2c1oc1nc(-c3ccccc3)cc(C)c12,131 to 132
5,O=C(/C=C/c1ccc(Br)cc1)/C=C/c1ccc(Br)cc1,211 to 213
6,NS(=O)(=O)CCCSc1ccc2ncc(Cl)n2n1,136 to 137
7,CCN(CC)C(C)CN1CCc2c(c(=O)oc3cc(OC)ccc23)C1 (stereo not drawn),83 to 85
8,CCOC(=O)c1c(C)nc2sc3c(c2c1OS(=O)(=O)C(F)(F)F)CCC1(C3)OCCO1,133 to 134
9,O=C(NC1CCCCC1)c1cc2ccncc2[nH]1,298 to 301
10,COC(=O)c1ccc(-c2nc(-c3ccc(C(C)(C)C)cc3)no2)c(N)c1,195 to 196
11,O=C1CC=C(c2ccccc2F)c2cc(Cl)ccc2N1,214 to 215
12,CC(C)(C)c1cc(C=Cc2cc(C=Cc3cc(C(C)(C)C)cc(C(C)(C)C)c3)cc(CO)c2)cc(C(C)(C)C)c1,226 to 228
13,Cc1oc(-c2ccc(C(F)(F)F)cc2)nc1-c1cccc(-c2ccc(OC(Cc3ccccc3)C(=O)O)cc2)c1 (stereo not drawn),148 to 149
14,Cc1cccc(C)c1Sc1nc[nH]n1,126 to 127
15,Brc1cccc(-c2csc(Br)n2)c1,88 to 90
16,CC(C)(C)c1ccc(C2CC(=O)c3ccccc3O2)cc1 (stereo not drawn),103 to 104
17,Cc1ccc(S(=O)(=O)N2CC=CC2)cc1,123 to 124
18,O=C(Nc1ccc(N2CCS(=O)(=O)CC2)c(C(F)(F)F)c1)c1cccc2cc(Oc3cc(NC(=O)C4CC4)ncn3)ccc12,195 to 205
19,CC(O)(CF)C(=O)Nc1ccc(C(=O)c2ccccc2)cc1 (stereo not drawn),146 to 148
20,Cc1nc(Cl)n(-c2ccccc2)n1,81 to 84
21,CC(=O)OC1CSC(Oc2cnccc2-c2ccncc2)C(OC(C)=O)C1OC(C)=O (stereo not drawn),185
22,CNc1nc(-c2cccc(-c3cncc(S(C)=O)c3)c2)c2cc(OC)c(OC)cc2n1 (stereo not drawn),208 to 210
23,O=c1c2cc(O)c(O)cc2c2cc(O)c(O)cc2n1Cc1ccc(Cl)c(Cl)c1,318
24,O=C1Cn2ncnc2-c2ccccc2N1,223
25,C=CCc1c(O)ccc2oc(C(=O)c3ccc(OC)cc3)c(C)c12,155 to 158

row,SMILES,melting point [°C]
1,Nc1nc(-c2ccccc2)c2cc(Cl)cc(Cl)c2n1,213
2,Clc1ccc(-c2nnco2)cc1,129
3,O=C1N=c2ccccc2=C1C1CCNCC1,156
4,O=C1C=CC(O)(c2cc3cc(F)ccc3n2S(=O)(=O)c2ccccc2)C=C1,166 to 167
5,CC(=O)OCC1OC(c2cnc(Cl)nc2Cl)C(OC(C)=O)C1OC(C)=O (stereo not drawn),75 to 78
6,CS(=O)(=O)c1cc(CCC(=O)O)cc(-c2nc(=O)c3ccccc3s2)n1,306
7,Cn1c(COc2ccc(CC3SC(=O)NC3=O)cc2)nc2cccnc21 (stereo not drawn),223 to 225
8,CCCCCCC(=O)C(NC(=O)C=Cc1ccccc1)C(=O)OC (stereo not drawn),85 to 86
9,CCCC(=O)NCc1cccc2c1CN(C1CCC(=O)NC1=O)C2=O (stereo not drawn),244 to 246
10,CCN1C(=O)N(c2ccc(C#N)c(C(F)(F)F)c2)C(=O)C1(CF)CF,129 to 130
11,c1cc2c3c(cccc3c1)C(NCCCCCCCCCCCCn1ccnc1)=N2,95 to 97
12,N#Cc1ccc(Cn2cncc2CCCO)cc1,121 to 123
13,COc1ccc(-n2c(-c3sc(Nc4ccccc4)nc3-c3ccccc3)nc3ccccc3c2=O)cc1,135 to 137
14,Cc1nc(OCC(F)(F)F)c([N+](=O)[O-])c(N2CCN(c3ccc(F)cc3)CC2)n1,92 to 95
15,CNC(=O)c1cccc(Oc2ncccc2C(=O)NCc2ccccc2)c1,164 to 167
16,COc1ccc2oc(C(N)=O)c(-c3nnn[nH]3)c2c1,205
17,Cc1ccc(-c2ccccc2C#N)nc1,80 to 81
18,NC1(Cl)C=CN=C(Cl)N1 (stereo not drawn),55 to 56
19,COc1ccc(-c2oc3cc(C)c(C)cc3c2-c2ccc(OC)cc2)cc1,153
20,C=CCOc1cccc(C[C@H](NC(=O)OC(C)(C)C)C(=O)OC)c1,50 to 51
21,COc1ccc(CCN2CCCC(CO)C2)cc1OC (stereo not drawn),87.5 to 89
22,O=[N+]([O-])c1cccc2ccc3c(c12)C(CCl)CN3 (stereo not drawn),100
23,COc1cc(OCc2ccccc2)ccc1C(=O)c1cc(Cl)ccc1N,97 to 98
24,O=C(O)c1ccccc1OCCN1CCC(c2cn(CC3CC3)c3ccccc23)CC1,145 to 147
25,CC(=O)Nc1ccc2ccccc2c1-c1c(P(c2ccccc2)c2ccccc2)ccc2ccccc12,105

row,SMILES,melting point [°C]
1,O=C(NC1CCC(O)CC1)NC12CC3CC(CC(C3)C1)C2 (stereo not drawn),205
2,CNC(=S)Nc1cc(OC)c(-c2ccc(C[C@H](NC(=O)c3c(Cl)cccc3Cl)C(=O)O)cc2)c(OC)c1,197 to 198
3,COc1cc(-c2nc3ccc(OCCN(C)C)cc3n2Cc2ccccc2Br)cc(OC)c1OC,152
4,CC(c1ccc(-c2ccccc2)c(F)c1)c1cc(CO)no1 (stereo not drawn),127 to 128
5,CN1C=CCC(C(=O)NCCc2c[nH]c3ccccc23)=C1,40 to 70
6,C[C@@H](NC(=O)OC(C)(C)C)c1nc2c(C(F)(F)F)cccc2c(O)c1C(=O)Nc1nccs1,265
7,CN(CCCc1ccccc1)[C@H]1CC[C@H](c2ccc3[nH]c(=O)oc3c2)CC1,58 to 62
8,COc1cc(Nc2c(NC(C)C(C)(C)C)c(=O)c2=O)c2ncccc2c1 (stereo not drawn),243 to 245
9,O=C1c2ccccc2C(=O)N1OS(=O)(=O)c1ccc(Cl)cc1,178 to 180
10,CC(O)Cn1nc2c3c(ccc([N+](=O)[O-])c31)CCC2 (stereo not drawn),144 to 146
11,COCCCn1nnnc1-c1cc(Br)c(OCc2ccccc2)cc1OCc1ccccc1,92 to 93
12,COC(=O)c1ccc(-c2ccc(NC(=O)c3ccc(OC)c(C#CCN(C)C)c3)cc2)cc1,234 to 237
13,CCOC(=O)c1c(CN(CC)CC)nc2ccc(Cl)cc2c1-c1ccccc1,107 to 108
14,COc1ccc2[nH]c3c([N+](=O)[O-])ccc(Cl)c3c(=O)c2c1Cl,251 to 253
15,OCC1CCC(n2cnc3cc(Cl)c(Cl)cc32)C1 (stereo not drawn),142 to 145
16,CN(C)CCc1c(-c2ccc3ccccc3c2)[nH]c2ccccc12,185 to 186
17,O=C1C=C(Oc2ccc(Oc3ccccc3)cc2)C(O)O1 (stereo not drawn),107 to 108
18,O=C(NCc1cccs1)c1cc2ccnc(Cl)c2[nH]1,179 to 181
19,CN(C)C=Cc1cc(Cl)c(Cl)cc1[N+](=O)[O-],171 to 174
20,CN1CCC(c2cccc(C(F)(F)F)c2)(C(C)(C)O)CC1,111 to 112
21,Cc1nnc2n1-c1ccc([N+](=O)[O-])cc1C(c1ccccc1Cl)=NC2,231 to 233
22,COC(=O)c1ccccc1S(=O)COc1ccc(Cl)cc1Cl (stereo not drawn),64 to 67
23,CCOC(CCOc1cc(Cc2cnc(N)nc2N)cc(OC)c1OC)OCC,105 to 106
